Patent US20140271930A1, “NONINVASIVE METHOD FOR MEASURING METABOLITES FOR SKIN HEALTH” (priority 2013, published 2014)

Tested on: scalp of dandruff and non-dandruff subjects
Assay: Metabolite expression profiling (LC/MS/MS, GC/MS/MS) of scalp D-Squame tape strip extracts: non-dandruff, dandruff baseline, dandruff after 3 weeks anti-dandruff shampoo
Assay type: in vivo, human
Details: metabolite level in scalp tape strip extract; for Mean Values WEEK 3 TRT Sel: dandruff subjects after 3 weeks treatment with Sel shampoo; for Mean Values WEEK 3 TRT ZPT: dandruff subjects after 3 weeks treatment with ZPT shampoo
Excerpt: In an embodiment, the use of an adhesive device can be used to achieve such sampling. In preparation for such a sampling study for a dandruff sampling, at a baseline visit, a qualified screening grader will complete adherent scalp flaking score (ASFS) grading for each subject and the highest flaking octant will be identified for tape strip sampling. The highest flaking octant will be sampled at baseline and at various time points during and after treatment with product. Tape strips samples will be collected from each subject at each time point (e.g., baseline and week 3).
The tape strip sampling procedure is repeated additional times, as needed, at the same site placing each D-Squame® tape disc on top of the prior sampled area. The D-Squame® tapes after sample collection are placed into the appropriately labeled wells in a labeled plate.
Following the sampling, an extraction and quantitation procedure is conducted. In an embodiment of the present invention, quantitation of small molecules from extracts of D-Squame® Tape Samples can be conducted via analysis by either LC/MS/MS or GC/MS/MS. In this embodiment of the present invention, the sample extraction in preparation for Metabolite expression profiling technology was performed.
The D-Squame® tape sample plates are removed from −80° C. freezer where they are stored following sample collection, and placed on dry ice. The tape strips are inserted into pre-labeled polypropylene collection tubes, adhesive side facing inward. Extraction buffer containing methanol and water is added to each collection tube and then extracted on ice using sonication for 15 min. If necessary, additional tapes are placed in the collection tube containing the extract solution and the extraction process is repeated as a means of concentrating the sample. Each extract solution is isolated from the tape strip and an aliquot of each sample is placed into a pre-labeled polypropylene collection tubes and frozen at −80° C. for metabolite expression profiling analysis. A separate aliquot is specified for soluble protein analysis using a BCA™ Protein Assay Kit. For this analysis, the aliquot consisting of methanol and water is taken to dryness under a gentle stream of nitrogen. The sample is resuspended in an appropriate aqueous buffer (e.g., PBS/SDS (1× PBS+0.2% SDS) and analyzed for soluble protein.
The extracts are analyzed by GC/MS/MS and LC/MS/MS in positive and negative ion mode. Chromatographic separation followed by full scan mass spectra and MS/MS spectra is carried out to record and quantify all detectable ions present in the samples. Metabolites with known chemical structure can be identified by matching the ions' chromatographic retention index and mass spectra fragmentation signatures with reference library entries created from authentic standard metabolites under the identical analytical procedure as the experimental samples. Welch's Two Sample t-tests and matched-pair t-tests are used to analyze the data. […] The statistical analyses are performed on natural log-transformed data to reduce the effect of any potential outliers in the data. Welch's Two Sample t-test comparisons are made between the means of each biochemical from the various groups listed at the top of the tables and are calculated using either or both of the statistical analysis software programs: Array Studio (Omicsoft, Inc) or “R” from the Free Software Foundation, Inc.
Subjects are evaluated by a qualified grader to establish their scalp status. Dandruff subjects are identified by their level of visible flaking as assessed by a qualified grader. Non-dandruff healthy scalp subjects are evaluated at baseline to establish normalized levels of each biomarker. In this study, there are 60 non-dandruff subjects that are evaluated at baseline. […] They are evaluated at baseline, and after 3 weeks of product usage.

| Substance | Mean Values WEEK 3 TRT Sel | Mean Values WEEK 3 TRT ZPT |
| --- | --- | --- |
| Eicosenoate [Eicosenoate (20:1n9 or 11)] | 0.202 | 0.3561 |
| dimethylarginine (SDMA + ADMA) | 0.8338 | 1.0243 |
| linolenate [alpha or gamma; (18:3n3 or 6)] |  | 0.8941 |
